These results are taken from US20090069430A1, “DIBENZENE DERIVATIVES AS CALCIUM CHANNEL BLOCKERS” (NEUROPHARMA, S.A., priority 2005, published 2009).

This experiment has as its system VDCC. The experiment in a line: VDCC inhibition: calcium entry (Fluo-4 fluorescence) after depolarization with 60 mM KCl in SH-SY5Y neuroblastoma cells. The format is cell-based, human. The method, then:
This assay is aimed to determine the VDCC blocker activity of compounds; it is performed using SH-SY5Y neuroblastoma cells. SH-SY5Y cells were plated at 5×10^4 cells per well into Black/Clear Bottom 96-well culture plate, 48 hours before treatment. Cells were loaded with Fluo-4, 5 μM and pluronic acid, 0.1%, for 30 min at 37° C., 5% CO2, following a incubation of 15 min at RT in Krebs-HEPES solution. Immediately cells are exposed to the samples for 10 min at different concentrations, depending on potency. After the treatment, calcium entry is measured as fluorescence in a Fluostar Optima plate reader (BMG) in response to depolarization with 60 mM KCl. The excitation wavelength was 485 nm, and that of emission 520 nm.

Setting [1] is: compound at 10^−5, 10 min exposure.
The mark [2] stands for this setting: compound at 10^−6, 10 min exposure.
The mark [3] stands for this setting: compound at 10^−7, 10 min exposure.
Where [4] appears, read: compound at 10^−8, 10 min exposure.

Regarding `COCOc1cc(OC)ccc1C(=O)NCCCCCNC(=O)c1ccc(OC)cc1OCOC` [Compound 1], the “% of calcium entry inhibition” value under setting [1] is on record as 57.8 ± 16%.
Turning to `COCOc1cc(OC)ccc1C(=O)NCCCOc1ccc(CCNC(=O)c2ccc(OC)cc2OCOC)cc1` [Compound 2], the “% of calcium entry inhibition” value was 93.3 ± 5% under setting [1], 34.2 ± 1.5% under setting [2], 29.7 ± 14% under setting [3] and 31.2 ± 9% under setting [4].
In the case of `COCOc1cc(OC)ccc1C(=O)NCCCOc1c(Br)cc(CCNC(=O)c2ccc(OC)cc2OCOC)cc1Br` [Compound 4], the “% of calcium entry inhibition” value under setting [3] came to 6 ± 0%.
As for `COc1cc(O)c(C(=O)NCCCCCNC(=O)c2cc(Br)c(OC)cc2O)cc1Br` [Compound 5], the “% of calcium entry inhibition” value under setting [2] is recorded as 0%.
Regarding `COc1cc(O)c(C(=O)NCCCCCNC(=O)c2cc(Br)c(OC)c(Br)c2O)cc1Br` [Compound 6], the “% of calcium entry inhibition” value is, setting by setting: under setting [1], 96.6 ± 4%; under setting [2], 48.7 ± 18%; under setting [3], 27.5 ± 5%; under setting [4], 11.8 ± 16%.
Turning to `COc1c(Br)cc(C(=O)NCCCCCNC(=O)c2cc(Br)c(OC)c(Br)c2O)c(O)c1Br` [Compound 7], the “% of calcium entry inhibition” value by setting is: under setting [1], 90.7 ± 3%; under setting [2], 3.1 ± 0%.
In the same order, the values of `CCOC(=O)COc1cc(OC)ccc1C(=O)NCCCOc1ccc(CCNC(=O)c2ccc(OC)cc2OCC(=O)OCC)cc1` [Compound 8] are 57 ± 7% and 0%.
As for `CCCOc1cc(OC)ccc1C(=O)NCCCOc1ccc(CCNC(=O)c2ccc(OC)cc2OCCC)cc1` [Compound 9], the “% of calcium entry inhibition” value runs as follows: under setting [1], 86 ± 0.5%; under setting [2], 61 ± 0%; under setting [3], 0%.
In the same order, the values of `COCCOc1cc(OC)ccc1C(=O)NCCCOc1ccc(CCNC(=O)c2ccc(OC)cc2OCCOC)cc1` [Compound 10] are 79 ± 0.1%, 22 ± 19% and 0%.
Consider `COc1ccc(C(=O)NCCCOc2ccc(CCNC(=O)c3ccc(OC)cc3OCC(C)=O)cc2)c(OCC(C)=O)c1` [Compound 11], for which the “% of calcium entry inhibition” value under setting [1] is recorded as 36 ± 3% and the “% of calcium entry inhibition” value under setting [2] is recorded as 0%.
`COc1ccc(C(=O)NCCCCCNC(=O)c2ccc(OC)c(C)c2OC)c(OC)c1C` [Compound 12]: the “% of calcium entry inhibition” value is 78 ± 2.5% under setting [1] and 0% under setting [2].
In the same order, the values of `COc1cc(OC)c(C(=O)NCCCCCNC(=O)c2ccc(OC)c(C)c2OC)cc1OC` [Compound 13] are 27 ± 2% and 0%.
`COc1ccc(C(=O)NCCCCCCNC(=O)c2ccc(OC)cc2OC)c(OC)c1` [Compound 14]: the “% of calcium entry inhibition” value under setting [1] turned out to be 38 ± 6% and the “% of calcium entry inhibition” value under setting [2] is 0%.
On to `COc1ccc(C(=O)NCCCOc2ccc(CCNC(=O)c3ccc(OC)cc3OC)cc2)c(OC)c1` [Compound 15], for which the “% of calcium entry inhibition” value by setting is: under setting [1], 91.5 ± 1.5%; under setting [2], 37 ± 5%; under setting [3], 0%.
Turning to `COc1ccc(C(=O)NCCCOc2ccc(CCNC(=O)c3ccc(OC)cc3OCC(C)C)cc2)c(OCC(C)C)c1` [Compound 16], the “% of calcium entry inhibition” value reads like this: under setting [1], 39 ± 4%; under setting [2], 0%.
As for `COc1ccc(C(=O)NCCCOc2ccc(CCNC(=O)c3ccc(OC)cc3OCC=C(C)C)cc2)c(OCC=C(C)C)c1` [Compound 17], the “% of calcium entry inhibition” value amounted to 45 ± 12% under setting [1], 39 ± 8% under setting [2] and 0% under setting [3].
As to `CCCCOc1cc(OC)ccc1C(=O)NCCCOc1ccc(CCNC(=O)c2ccc(OC)cc2OCCCC)cc1` [Compound 18], the “% of calcium entry inhibition” value is, setting by setting: under setting [1], 37 ± 2%; under setting [2], 0%.
For `CCC(C)Oc1cc(OC)ccc1C(=O)NCCCOc1ccc(CCNC(=O)c2ccc(OC)cc2OC(C)CC)cc1` (stereo not shown) [Compound 19], the “% of calcium entry inhibition” value is, setting by setting: under setting [1], 75 ± 12%; under setting [2], 69 ± 1%; under setting [3], 0%.
In the same order, the values of `CCC(C)Oc1cc(OC)ccc1C(=O)NCCCCCCNC(=O)c1ccc(OC)cc1OC(C)CC` (stereo not shown) [Compound 20] are 91 ± 3%, 59 ± 19% and 0%.
In the case of `CCCCCOc1cc(OC)ccc1C(=O)NCCCCCCNC(=O)c1ccc(OC)cc1OCCCCC` [Compound 21], the “% of calcium entry inhibition” value reads like this: under setting [1], 27 ± 7%; under setting [2], 0%.
For the molecule `CCCCOc1cc(OC)ccc1C(=O)NCCCCCCNC(=O)c1ccc(OC)cc1OCCCC` [Compound 22], the “% of calcium entry inhibition” value is, setting by setting: under setting [1], 24 ± 12%; under setting [2], 0%.
